Test results published in ChEMBL document CHEMBL3098042, “New carbocyclic nucleoside analogues with a bicyclo[2.2.1]heptane fragment as sugar moiety; synthesis, X-ray crystallography and anticancer activity” (2014).

How the values were obtained:
[1] = Anticancer activity against human U937 cells assessed as decrease in uridine incorporation at 30 uM relative to control; assay type: functional, U-937; parameters: scale not given: the % may be the effect or the level left
T47D = assay: Growth inhibition of human T47D cells at 10^-5 M relative to control; assay type: functional; details: values are per cent of control
MDA-MB-468 = assay: Growth inhibition of human MDA-MB-468 cells at 10^-5 M relative to control; assay type: functional; details: values are per cent of control
MCF7 = assay: Growth inhibition of human MCF7 cells at 10^-5 M relative to control; assay type: functional; details: values are per cent of control
[2] = Growth inhibition of human UO31 cells at 10^-5 M relative to control; assay type: functional; details: UO-31, values are per cent of control
PC-3 = assay: Growth inhibition of human PC3 cells at 10^-5 M relative to control; assay type: functional; details: values are per cent of control
[3] = Growth inhibition of human RXF393 cells at 10^-5 M relative to control; assay type: functional; details: RXF 393, values are per cent of control
[4] = Growth inhibition of human NCI-ADR-RES cells at 10^-5 M relative to control; assay type: functional; details: values are per cent of control
CAKI-1 = assay: Growth inhibition of human CAKI-1 cells at 10^-5 M relative to control; assay type: functional; details: values are per cent of control
[5] = Growth inhibition of human OVCAR5 cells at 10^-5 M relative to control; assay type: functional; details: OVCAR-5, values are per cent of control
IGROV-1 = assay: Growth inhibition of human IGROV1 cells at 10^-5 M relative to control; assay type: functional; details: values are per cent of control
LOX IMVI = assay: Growth inhibition of human LOXIMVI cells at 10^-5 M relative to control; assay type: functional; details: values are per cent of control
SK-MEL-5 = assay: Growth inhibition of human SK-MEL-5 cells at 10^-5 M relative to control; assay type: functional; details: values are per cent of control
SNB-75 = assay: Growth inhibition of human SNB75 cells at 10^-5 M relative to control; assay type: functional; details: values are per cent of control
HCT-116 = assay: Growth inhibition of human HCT116 cells at 10^-5 M relative to control; assay type: functional; details: values are per cent of control
HCT-15 = assay: Growth inhibition of human HCT15 cells at 10^-5 M relative to control; assay type: functional; details: values are per cent of control
NCI-H522 = assay: Growth inhibition of human NCI-H522 cells at 10^-5 M relative to control; assay type: functional; details: values are per cent of control
NCI-H322M = assay: Growth inhibition of human NCI-H322M cells at 10^-5 M relative to control; assay type: functional; details: values are per cent of control
MOLT-4 = assay: Growth inhibition of human MOLT4 cells at 10^-5 M relative to control; assay type: functional; details: values are per cent of control
SR = assay: Growth inhibition of human SR cells at 10^-5 M relative to control; assay type: functional; details: values are per cent of control
K562 = assay: Growth inhibition of human K562 cells at 10^-5 M relative to control; assay type: functional; details: values are per cent of control
HL-60(TB) = assay: Growth inhibition of human HL-60(TB) cells at 10^-5 M relative to control; assay type: functional; details: values are per cent of control
CCRF-CEM = assay: Growth inhibition of human CCRF-CEM cells at 10^-5 M relative to control; assay type: functional; details: values are per cent of control
NCI-H226 = assay: Growth of human NCI-H226 cells at 10^-5 M relative to control

| Compound | growth, % of control at 10 µM (T47D) | growth, % of control at 10 µM (MDA-MB-468) | growth, % of control at 10 µM (MCF7) | growth, % of control at 10 µM [2] | growth, % of control at 10 µM (PC-3) | growth, % of control at 10 µM [3] | growth, % of control at 10 µM [4] | growth, % of control at 10 µM (CAKI-1) | growth, % of control at 10 µM [5] | growth, % of control at 10 µM (IGROV-1) | growth, % of control at 10 µM (LOX IMVI) | growth, % of control at 10 µM (SK-MEL-5) | growth, % of control at 10 µM (SNB-75) | growth, % of control at 10 µM (HCT-116) | growth, % of control at 10 µM (HCT-15) | growth, % of control at 10 µM (MOLT-4) | growth, % of control at 10 µM (SR) | growth, % of control at 10 µM (K562) | growth, % of control at 10 µM (HL-60(TB)) | growth, % of control at 10 µM (CCRF-CEM) | also measured |
| --- | --- | --- | --- | --- | --- | --- | --- | --- | --- | --- | --- | --- | --- | --- | --- | --- | --- | --- | --- | --- | --- |
| O=c1[nH]c(=O)n([C@H]2C[C@@H]3[C@@H](/C=C/[C@@H](O)COc4cccc(Cl)c4)[C@H](O)C[C@@H]3O2)cc1I | – | – | – | – | – | – | – | – | – | – | – | – | – | – | – | – | – | – | – | – | Activity [1]: 64% |
| Nc1ncnc2c1ncn2[C@H]1C[C@H]2[C@H](CO)[C@@H]1C[C@@H]2Cl | 102% | 103% | 100% | 94.2% | 99.3% | 106% | 103% | 86.9% | 90.1% | 103% | 91.8% | 96.5% | 103% | 89.2% | 97.5% | 85.6% | 88.9% | 97.1% | 95.8% | 90.1% | growth, % of control at 10 µM (NCI-H522): 98.7%; growth, % of control at 10 µM (NCI-H322M): 102%; growth, % of control at 10 µM (NCI-H226): 110% |
| CN(C)c1ncnc2c1ncn2[C@H]1C[C@H]2[C@H](CO)[C@@H]1C[C@@H]2Cl | 96.8% | 102% | 94.9% | 79.1% | 93.3% | 109% | 98.7% | 95.1% | 90.3% | 101% | 96.8% | 99.5% | 99.3% | 101% | 100% | 78.9% | 81.4% | 91% | 98.2% | 86.7% | growth, % of control at 10 µM (NCI-H522): 88.3%; growth, % of control at 10 µM (NCI-H322M): 96.8%; growth, % of control at 10 µM (NCI-H226): 101% |
| CN(C)c1ncnc2c1ncn2[C@H]1C[C@@H]2C=C[C@H]1[C@H]2CO | 104% | 98.2% | 98.7% | 82.7% | 92% | 109% | 99.5% | 97.9% | 96.5% | 98.2% | 95.8% | 98.3% | 109% | 94.8% | 98.9% | 79.7% | 82.2% | 90% | 88.8% | 87.9% | growth, % of control at 10 µM (NCI-H522): 98.5%; growth, % of control at 10 µM (NCI-H322M): 104%; growth, % of control at 10 µM (NCI-H226): 109% |
| OC[C@H]1[C@@H]2C[C@H](n3cnc4c(NC5CC5)ncnc43)[C@H]1C[C@@H]2Cl | 89.6% | 100% | 98.5% | 85.8% | 104% | 110% | 101% | 102% | 95% | 90.6% | 89.6% | 101% | 97.8% | 96.5% | 96.5% | 84.8% | 86.6% | 95.8% | 89% | 89.5% | growth, % of control at 10 µM (NCI-H522): 88.7%; growth, % of control at 10 µM (NCI-H322M): 90%; growth, % of control at 10 µM (NCI-H226): -27.2% |
| OC[C@H]1[C@@H]2C[C@H](n3cnc4c(NC5CCCC5)ncnc43)[C@H]1C[C@@H]2Cl | 94.1% | 102% | 97.2% | 99.6% | 95.3% | 104% | 103% | 99% | 98.8% | – | 89.7% | 95.7% | 88% | 99.8% | 93.7% | 87.1% | 86.5% | 93.1% | 118% | 83.7% | growth, % of control at 10 µM (NCI-H522): 101% |
| OC[C@H]1[C@@H]2C[C@H](n3cnc4c(NCCc5ccccc5)ncnc43)[C@H]1C[C@@H]2Cl | 86.8% | 89.4% | 89.9% | 73.8% | 89.1% | 87% | 88.2% | 96% | 104% | 105% | 92.7% | 73.9% | 106% | 101% | 81.7% | 83.3% | 84.1% | 91.1% | 120% | 87.6% | growth, % of control at 10 µM (NCI-H322M): 99.5% |
| CCN(CC)CCCNc1ncnc2c1ncn2[C@H]1C[C@H]2[C@H](CO)[C@@H]1C[C@@H]2Cl | 104% | 101% | 95.9% | 80.6% | 102% | 111% | 103% | 93% | 99.7% | 112% | 96.9% | 102% | 99.2% | 98.5% | 101% | 83.6% | 85.8% | 106% | 90.5% | 90.2% | growth, % of control at 10 µM (NCI-H522): 93.2%; growth, % of control at 10 µM (NCI-H322M): 93.2%; growth, % of control at 10 µM (NCI-H226): 105% |
| CN1CCN(c2ncnc3c2ncn3[C@H]2C[C@H]3[C@H](CO)[C@@H]2C[C@@H]3Cl)CC1 | 100% | 101% | 84% | 78.5% | 96.2% | 111% | 100% | 98.4% | 96.4% | 92.7% | 98% | 99.4% | 107% | 101% | 97.7% | 83.4% | 81% | 107% | 86% | 90.5% | growth, % of control at 10 µM (NCI-H322M): 92.7%; growth, % of control at 10 µM (NCI-H226): 102% |
| OC[C@H]1[C@@H]2C[C@H](n3cnc4c(N5CCOCC5)ncnc43)[C@H]1C[C@@H]2Cl | 100% | 110% | 99.9% | 76.9% | 98.5% | 113% | 99% | 87.2% | 93% | 92.3% | 95.8% | 99.8% | 85.6% | 89.6% | 93% | 81.1% | 82.3% | 90.7% | 91.9% | 84.9% | growth, % of control at 10 µM (NCI-H522): 94.5%; growth, % of control at 10 µM (NCI-H322M): 100%; growth, % of control at 10 µM (NCI-H226): 108% |
